The inhibition is the relative decrease from the control value, in per cent. A low value points to little suppression.

Read-outs that look alike come from different tables or passages of the source.

Assay [1] has as its system HSV-1 macroplaque strain (MP). Format: cell-based. To be noted: 50 μM spermine added with 100 μM MGBG and virus, or 2 h later. On the procedure: HEp2 cells were grown as monolayers in Eagle's minimum essential medium (E-MEM) supplemented or not with 5% heat-inactivated foetal calf serum (FCS) and supplemented with 100 U/ml penicillin and 100 U/ml streptomycin. The cells were maintained at 37° C. under 5% CO2. The HSV-1 macroplaque strain (MP), obtained from B. Jacquemont (Lyon, France), was a gift of B. Roizman (Chicago, Ill., U.S.A.), and was used throughout this study. Viruses were grown in HEp2 cells.
HEp2 cells were grown in 6-well plates (˜10^6 cells/well) and infected just before confluence with a multiplicity of infection (m.o.i.) of 0.5 plaque-forming units (PFU) per cell in E-MEM in absence of FCS, except for some experiments. After adsorption of the virus for 1 h at 33° C. under 5% CO2, the medium containing the virus suspension was removed and the cells were washed with E-MEM, then incubated in E-MEM without FCS at 37° C. for different periods of times until harvest. Times post-infection (p.i.) were calculated from the time of addition of the virus suspension. HEp2 cells were exposed to MGBG treatment for different times. When cells were pre-treated with MGBG prior infection, MGBG was added to cell medium 6 h or 24 h prior infection until harvest. In non pre-treated cells, MGBG was added simultaneously with virus suspension, or 2 h, 4 h or 6 h latter. When cells were treated for more than 24 h, medium was replaced every 24 h with fresh medium containing the same concentration of MGBG.
Accordingly, the effect of inactivation of enzymes involved in polyamine biosynthesis upon HSV-1 infection inhibition was assessed. The HSV-1 MP strain was used throughout this study for its ability to induce the formation of large syncytia from infected cells. Therefore, it was possible to easily and quickly investigate the inhibition of viral replication at the level of syncytia formation.
To investigate the effect of the concentration of MGBG on viral infection, HEp2 cells were infected with 0.5 PFU of HSV-1 per cell in FCS free medium in which 10 μM to 300 μM MGBG was added from the adsorption step of the virus until the end of the experiment. After 24 h of infection, the formation of syncytia was observed, and the number of syncytia was estimated by counting using the optical microscope.
HEp2 cell were pre-treated with MGBG by incubation in FCS free medium containing 10 to 300 μM MGBG 6h to 24 h before infection. Then cells were infected as described above and MGBG was maintained in the medium until the end of the experiment.

In assay [2] the test system is HSV-1 proteins, mRNA and DNA. Kind of assay: Levels of viral proteins (Western blot), mRNA and DNA (slot blot) in infected HEp2 cells. It is filed as cell-based. The settings on record: 6 h pre-treatment with 100 μM MGBG, then MGBG and 50 μM spermine, 24 h p.i.
Protocol: Total RNA and DNA from control mock-infected and infected HEp2 cells were purified using Qiagen RNA/DNA kit. RNA were submitted to DNAse/RNAse free digestion (1.5 unit/μg RNA) and DNA were submitted to RNAse A digestion (10 units/μg). Quantitation of SAMDC mRNA, of viral mRNAs and viral DNA present in each sample was determined by slot blot analysis using the 1250 bp PstI/PvuII fragment of pSAMr1 plasmid (Pajunen et al., 1988). The 746 bp SalI-EcoNI fragment of pSG28 and the 1308 bp MluI fragment of pSG124 plasmids (Goldin et al., 1981) were labelled with [^32P] and used as probes to detect the immediate early ICP27 and the early UL42 mRNAs respectively. Us11 late mRNA was detected with [^32P]-labelled probe composed of the 230 bp XhoI fragment of pHSV-Us12 plasmid (Diaz et al., 1996). Viral DNA was detected using the ICP27 specific DNA probe.
Mock-infected and HSV-1-infected HEp2 cells were washed three times with ice cold phosphate-buffered saline (PBS) (130 mM NaCl, 4 mM Na2HPO4.2H2O, 1.5 mM KH2PO4), scrapped into PBS, and collected by centrifugation at 500×g. Cells were resuspended in Laemmli buffer (Laemmli, 1970). Proteins were resolved by polyacrylamide gel electrophoresis and transferred by electroblotting onto a polyvinylidene difluoride membrane (Immobilon-P; Millipore). Viral proteins were analysed by Western blots (10 μg aliquots) using a 50 fold dilution of either a rabbit polyclonal anti-ICP27 antibody, or a rabbit polyclonal anti-Us11 antibody (Diaz et al., 1993), or a mouse monoclonal anti-UL42 antibody diluted 50 fold.
Cells were pre-treated with 10 to 200 μM of MGBG, then infected with HSV-1 in the presence of the same concentrations of MGBG. Proteins, RNA and DNA were extracted from cells infected for 24 h. Viral proteins were detected by Western blot using specific antibodies, whereas viral mRNA and DNA levels were assayed by slot blot analysis.
Assay [3] deals with T1, SAMDC (Rattus norvegicus, UniProt P17708).
T1 construct: according to the procedure described in Pegg A E, Poso H, S-adenosylmethionine decarboxylase (rat liver), Methods Enzymol; 1983;94: 234-239; from tissue
T1 sequence (P17708 68-333 limits assumed): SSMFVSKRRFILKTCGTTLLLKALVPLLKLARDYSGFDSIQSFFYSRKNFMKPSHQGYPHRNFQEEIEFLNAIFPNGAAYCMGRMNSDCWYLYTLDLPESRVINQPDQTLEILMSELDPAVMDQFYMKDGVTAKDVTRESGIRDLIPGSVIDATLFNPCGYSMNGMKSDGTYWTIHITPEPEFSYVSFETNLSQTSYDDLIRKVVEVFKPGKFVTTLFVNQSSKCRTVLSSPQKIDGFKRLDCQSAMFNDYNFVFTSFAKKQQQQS
T1 sequence (P17708 1-67 limits assumed): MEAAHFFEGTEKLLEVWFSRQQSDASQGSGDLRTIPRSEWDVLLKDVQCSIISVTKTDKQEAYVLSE
Kind of assay: SAMDC inhibition in vitro. It is filed as biochemical. To be noted: inhibitor at 0.1 μM. The source says: The results of SAMDC inhibition in vitro and of HSV replications in cellulo for MGBG and Compounds (I) to (III) disclosed above are reported in the table below.

Assay [4] deals with HSV. Kind of assay: HSV replication in cellulo. Format: cell-based. The settings on record: read-out: HSV inhibition in cellulo IC50. On the procedure:
(§1) Three HSV 1 reference strains were tested : SC16 (acyclovir-susceptible reference strain; (Hill et al., 1975)), DM21 (acyclovir-resistant reference strain derived from SC16; (Efstathiou et al., 1989)) and TP 2.5 (foscarnet-resistant reference strain derived from SC16; (Larder and Darby, 1985)). Antiviral assays were performed in duplicate on HEp-2 cells seeded in 96 wells microplates. Dilutions of virus and drugs were prepared in E-MEM without FCS. Cells were first treated for 24 hours with MGBG using a series of 6 twofold serial dilutions from 12.5 to 400 μM. Infection was then achieved with 5 tenfold dilutions of cell-associated virus (10^−1 to 10^−5). Each dilution was incubated with a series of 6 concentrations of each antiviral drug (from 12.5 to 400 μM in twofold dilutions for MGBG, from 0.16 to 500 μM in fivefold dilutions for acyclovir and from 31 to 1000 μM in twofold dilutions for foscarnet). […] After incubation at 36° C. with 5% CO2 for 24 hours post-infection, medium was replaced with freshly prepared dilutions of MGBG. Viral multiplication was checked 24 hours afterwards by an ELISA (Morfin et al., 1999), using a rabbit monoclonal anti-HSV 1 antibody (BO 114, Dako) and a protein A peroxidase-conjugated (BioRad). The substrate, 2,2′-azino-di(3-ethyl-benzthiazoline) sulfonic acid (ABTS) diluted in ABTS buffer (Boehringer, Mannheim), was added to each well. After 30 min at room temperature, the plates were briefly agitated and optical densities were read at 405 nm with a multichannel spectrophotomoter (Titertek-Multiskan). Optical density values were used with the Biolise program (Life Sciences International) to calculate the concentration of the drug causing a 50% inhibition of viral replication (IC50) by logistic regression analysis.

In assay [5] the test system is acyclovir-susceptible reference strain SC16. Put plainly: Antiviral susceptibility testing by ELISA on HEp-2 cells, strain SC16. Format: cell-based, HSV 1. On the procedure: as §1
(§2) The capacity of MGBG to preclude infection of three HSV-1 acyclovir and/or foscarnet resistant strains was tested. […] The ED values were determined.
For orientation: In an ELISA, binding on a coated surface is turned into a signal by an enzyme label.

Assay [6] relates to acyclovir-resistant reference strain DM21. Put plainly: Antiviral susceptibility testing by ELISA on HEp-2 cells, strain DM21. Format: cell-based, HSV 1. To be noted: for IC50: HEp-2 cells, ELISA, median of at least three assays, drugs diluted in μM, read-out: Susceptibility of strain DM21 (concentration causing 50% inhibition of viral replication, IC50), median. As to the method:
as §1
The capacity of MGBG to preclude infection of three HSV-1 acyclovir and/or foscarnet resistant strains was tested. The reference strains used in this study were the SC16 acyclovir-susceptible reference strain, the DM21 acyclovir-resistant reference strain derived from SC16 and the TP 2.5 foscarnet-resistant reference strain derived from SC16 (Efstathiou et al., 1989; Hill et al., 1975; Larder and Darby, 1985). In each experiment, dose response curves were constructed for […], for acyclovir, and for MGBG. The ED values were determined.

The subject of assay [7] is foscarnet-resistant reference strain TP 2.5. Kind of assay: Antiviral susceptibility testing by ELISA on HEp-2 cells, strain TP 2.5. It is filed as cell-based, HSV 1. To be noted: median of at least three assays, drugs diluted in μM, read-out: Susceptibility of strain TP2.5 (concentration causing 50% inhibition of viral replication, IC50), median. On the procedure:
as §1, §2

With `NCCCNCCCCNCCCN` [spermine], in assay [1], the “MGBG inhibition of viral infection on addition of exogenous spermine” value is reported as “totally prevented”. In addition, the “MGBG-induced viral inhibition in the presence of exogenous spermine” value in assay [2] is reported as “abolished the MGBG-induced viral inhibition”.

For `N=C(N)c1cccc2c1CC/C2=N\N=C(N)N` [Compound (II), SAM486A], in assay [3], the “% inhibition in vitro (0.1 μM)” value is recorded as 97%. The IC50 in assay [4] worked out at 47 µM.

For `N=C(N)c1ccc(/N=N/Nc2ccc(C(=N)N)cc2)cc1` [Compound (I), Berenil], the “% inhibition in vitro (0.1 μM)” value in assay [3] worked out at 47%. Moreover, the IC50 in assay [4] is 70 µM.

Compound `CC(NNC(=N)N)c1cccc(C(=N)N)n1` (centres unmarked) [Compound (III)] had an inhibition at 0.1 µM in assay [3] of 97%.

For the compound `O=C(O)P(=O)(O)O` [Foscarnet, foscarnet], the IC50 in assay [5] (HEp-2, read-out: Susceptibility of strain SC16 (concentration causing 50% inhibition of viral replication, IC50), median) is 224 µM; in assay [6], 148 µM; in assay [7] it was greater than 1000 µM. Besides, the “decreased IC50 on acyclovir-resistant strains versus acyclovir-susceptible strain” value in assay [6] (compared with SC16) amounted to 34%.

On to `Nc1nc2c(ncn2COCCO)c(=O)[nH]1` [Acyclovir, acyclovir], for which the IC50 was 28 µM in assay [5] (HEp-2 cells, ELISA, median of at least three assays, drugs diluted in μM, read-out: Susceptibility of strain SC16 (concentration causing 50% inhibition of viral replication, IC50), median); greater than 500 µM in assay [6]; 215 µM in assay [7].

The values are drawn from patent US20070059299A1, “S-adenosyl methionine decarboxylase inhibition for the treatment of a herpes simplex virus infection” (Institut National de la Sante et de la Recherche Medicale …, priority 2002, published 2007).
